Results reported in patent publication US12054494B2, “Compound with anticancer activity” (KYOWA KIRIN CO., LTD., priority 2018, dated 2024).

Each compound was assayed on MYC mRNA expression in SU-DHL-4 cells (assay: Suppressive effect on MYC mRNA expression (qRT-PCR)). Settings: test compound 100 nmol/L, 6 hours.
Type: cell-based
Method: Suppressive Effect on MYC mRNA Expression
SU-DHL-4 cells were cultured at 37° C. using a carbon dioxide gas incubator (95% air, 5% CO2) in RPMI1640 medium in which FBS in an amount to give a final concentration of 10 vol % and PS in an amount to give a final concentration of 1 vol % were added. The cells were passaged twice a week at a volume of 20-40 mL so as to maintain a cell concentration of 1×10^6 cells/mL or less.
The cultured SU-DHL-4 cells were seeded at 6×10^5 cells/well in a transparent 6-well plate (Code No. 140675, Thermo Fisher Scientific). After seeding, the cells were precultured at 37° C. in a carbon dioxide gas incubator for 18 to 25 hours. Next, a 0.1 mmol/L DMSO solution of the test compound was prepared, diluted so that the concentration will be 200 times the final concentration in the RPMI1640 medium containing the above FBS and PS, and 1/200 volume of the diluted solution was added to each well. At this time, the final concentration of DMSO was adjusted to be 0.1 vol %. After adding the test compound, the cells were cultured at 37° C. in a carbon dioxide gas incubator for 6 hours.
Then, the cells were collected by centrifugation and used for extraction of mRNA. mRNA extraction from cells was performed using Maxwell® 16 LEV simplyRNA Purification Kits (Code No. AS1270, Promega). The mRNA recovery protocol was performed according to the manufacturer's recommended protocol attached to the kit.
0.001 mg of the recovered mRNA was converted to cDNA by SuperScript IV VILO Master Mix with ezDNase Enzyme (Code No. 11766050, Thermo Fisher Scientific). The cDNA conversion was performed, according to the manufacturer's recommended protocol attached to the kit, in 0.020 mL of the reaction solution, and GeneAmp® PCR System 9700 (Applied Biosystems) was used. The cDNA-converted sample was diluted 10-fold by adding 0.180 mL of RNase Free Water (Code No. 10977-023, Thermo Fisher Scientific) and used for quantitative real-time polymerase chain reaction (qRT-PCR). For the calibration curve of qRT-PCR, 0.08 mL of RNase Free Water was added to a cDNA sample using DMSO as a test compound for 5-fold dilution. Further, two 5-fold dilutions were prepared stepwise, and these three samples were used as the calibration curve samples.
The following reagents were used for qRT-PCR: TaqMan Gene Expression Assays, Inventoried (Primer probe: Code No. 4331182, Thermo Fisher Scientific, Assay ID: (i) MYC: Hs00153408_m1, (ii) ACTB: Hs01060665_g1, (iii) GAPDH: Hs04420697_g1, (iv) HPRT1: Hs02800695_m1); 2X TaqManR Fast Universal PCR Master Mix, no AmpEraseR UNG (Master Mix: Code No. 4367846, Thermo Fisher Scientific).
Primer probe (0.001 mL), Master Mix (0.010 mL), water (0.004 mL) and the diluted cDNA sample (0.005 mL) were mixed, and qRT-PCR analysis was performed. For qRT-PCR analysis, QuantStudio 7 Flex (Thermo Fisher Scientific) or 7500 Fast Real-Time PCR (Applied Biosystems) was used to measure in Fast mode and analyze. The expression level of the MYC gene was determined by quantifying ACTB, GAPDH, and HPRT1 as housekeeping genes and correcting by the following formula to calculate the suppression rate of (%) of MYC mRNA expression when the test compound was allowed to act at a concentration of 100 nmol/L. Corrected MYC expression=A/B • A: MYC expression level • B: Geometric mean of expression levels of ACTB, GAPDH and HPRT1
Using the corrected values, the suppression rate of MYC expression for the wells to which […] was calculated by the following formula. Suppression rate of MYC expression (%)=100−C/D×100 • C: Corrected MYC expression level in a well containing test compound • D: Corrected MYC expression level in a well to which test compound was not added

Compared with `CCC(=O)N1c2ccccc2[C@H](Nc2ccc(NC(=O)C#CCNC(=O)C3CCC(N[C@@H]4C[C@H](C)N(C(=O)CC)c5ccccc54)CC3)cc2)C[C@@H]1C` (relative stereo) [Compound 8g, (1R,4r)-4-(((2S*,4R*)-2-Methyl-1-propionyl-1,2,3,4-tetrahydroquinolin-4-yl)amino)-N-(4-((4-(((2S,4R)-2-methyl-1-propionyl-1,2,3,4-tetrahydroquinolin-4-yl)amino)phenyl)amino)-4-oxobut-2-yn-1-yl)cyclohexane-1-carboxamide], `CCC(=O)N1c2ccccc2[C@H](Nc2ccc(NC(=O)CNC(=O)N[C@H]3CC[C@H](N[C@@H]4C[C@H](C)N(C(=O)CC)c5ccccc54)CC3)cc2)C[C@@H]1C` [Compound 8j, 2-(3-((1R,4R)-4-(((2S,4R)-2-Methyl-1-propionyl-1,2,3,4-tetrahydroquinolin-4-yl)amino)cyclohexyl)ureido)-N-(4-(((2S,4R)-2-methyl-1-propionyl-1,2,3,4-tetrahydroquinolin-4-yl)amino)phenyl)acetamide] is higher in “Suppression rate of MYC mRNA expression” value: 96.6% for the first, 97.2% for the second.

Going from `CCC(=O)N1c2ccccc2[C@H](N[C@H]2CC[C@H](NC(=O)C#CCNC(=O)[C@H]3CC[C@H](N[C@@H]4C[C@H](C)N(C(=O)CC)c5ccccc54)CC3)CC2)C[C@@H]1C` (relative stereo) [Compound 9d, (1R,4R)-4-(((2S*,4R*)-2-Methyl-1-propionyl-1,2,3,4-tetrahydroquinolin-4-yl)amino)-N-(4-(((1R,4R)-4-(((2S,4R)-2-methyl-1-propionyl-1,2,3,4-tetrahydroquinolin-4-yl)amino)cyclohexyl)amino)-4-oxobut-2-yn-1-yl)cyclohexane-1-carboxamide] to `CCC(=O)N1c2ccccc2[C@H](Nc2ccc(C(=O)N3CC(C(=O)N[C@H]4CC[C@H](N[C@@H]5C[C@H](C)N(C(=O)CC)c6ccccc65)CC4)C3)cc2)C[C@@H]1C` [Compound 8r, 1-(4-(((2S,4R)-2-Methyl-1-propionyl-1,2,3,4-tetrahydroquinolin-4-yl)amino)benzoyl)-N-((1R,4R)-4-(((2S,4R)-2-methyl-1-propionyl-1,2,3,4-tetrahydroquinolin-4-yl)amino)cyclohexyl)azetidine-3-carboxamide], the “Suppression rate of MYC mRNA expression” value falls from 98.0% to 96.7%.

Going from `CCC(=O)N1c2ccccc2[C@H](NCCCCC(=O)NCc2cn(-c3ccc(N[C@@H]4C[C@H](C)N(C(=O)CC)c5ccccc54)cc3)nn2)C[C@@H]1C` (relative stereo) [Compound 12f, 5-(((2S*,4R*)-2-Methyl-1-propionyl-1,2,3,4-tetrahydroquinolin-4-yl)amino)-N-((1-(4-(((2S,4R)-2-methyl-1-propionyl-1,2,3,4-tetrahydroquinolin-4-yl)amino)phenyl)-1H-1,2,3-triazol-4-yl)methyl)pentane amide] to `CCC(=O)N1c2ccccc2[C@H](Nc2ccc(Cn3cc(C(=O)Nc4ccc(N[C@@H]5C[C@H](C)N(C(=O)CC)c6ccccc65)cc4)nn3)cc2)C[C@@H]1C` [Compound 5j, 1-(4-(((2S,4R)-2-Methyl-1-propionyl-1,2,3,4-tetrahydroquinolin-4-yl)amino)benzyl)-N-(4-(((2S,4R)-2-methyl-1-propionyl-1,2,3,4-tetrahydroquinolin-4-yl)amino)phenyl)-1H-1,2,3-triazolee-4-carboxamide], the “Suppression rate of MYC mRNA expression” value falls from 97.9% to 96.8%.

Compared with `CCC(=O)N1c2ccccc2[C@H](Nc2ccc(C(=O)NCCNS(=O)(=O)c3ccc(N[C@@H]4C[C@H](C)N(C(=O)CC)c5ccccc54)cc3)cc2)C[C@@H]1C` [Compound 4d, 4-{[(2S,4R)-2-Methyl-1-propionyl-1,2,3,4-tetrahydroquinolin-4-yl]amino}-N-{2-[(4-{[(2S,4R)-2-methyl-1-propionyl-1,2,3,4-tetrahydroquinolin-4-yl]amino}phenyl)sulfonamide]ethyl}benzamide], `CCC(=O)N1c2ccccc2[C@H](Nc2ccc(NC(=O)CCCC(=O)NC3CCC(N[C@@H]4C[C@H](C)N(C(=O)CC)c5ccccc54)CC3)cc2)C[C@@H]1C` (stereo partly drawn) [Compound 7o, N^1-((1R,4r)-4-(((2S,4R)-2-Methyl-1-propionyl-1,2,3,4-tetrahydroquinolin-4-yl)amino)cyclohexyl)-N^5-(4-(((2S,4R)-2-methyl-1-propionyl-1,2,3,4-tetrahydroquinolin-4-yl)amino)phenyl)glutaramide] is lower in “Suppression rate of MYC mRNA expression” value: 98.3% for the first, 97.4% for the second.

First: CCC(=O)N1c2ccccc2[C@H](Nc2ccc(CCC(=O)NCC3(NC4CCC(N[C@@H]5C[C@H](C)N(C(=O)CC)c6ccccc65)CC4)COC3)cc2)C[C@@H]1C (some centres unmarked) [Compound 7h]
Second: CCC(=O)N1c2ccccc2[C@H](Nc2ccc(-c3nnc(CNC(=O)[C@H]4CC[C@H](N[C@@H]5C[C@H](C)N(C(=O)CC)c6ccccc65)CC4)o3)cc2)C[C@@H]1C [Compound 7q, (1R,4R)-4-(((2S,4R)-2-Methyl-1-propionyl-1,2,3,4-tetrahydroquinolin-4-yl)amino)-N-((5-(4-(((2S,4R)-2-methyl-1-propionyl-1,2,3,4-tetrahydroquinolin-4-yl)amino)phenyl)-1,3,4-oxadiazol-2-yl)methyl)cyclohexane-1-carboxamide]
The “Suppression rate of MYC mRNA expression” value of the first is higher: 97.5% for the first, 97.4% for the second.

First: CCC(=O)N1c2ccccc2[C@H](Nc2ccc(NC(=O)N3CCN(C(=O)C4CCC(N[C@@H]5C[C@H](C)N(C(=O)CC)c6ccccc65)CC4)CC3)cc2)C[C@@H]1C (stereo partly drawn) [Compound 7p, 4-((1R,4r)-4-(((2S,4R)-2-Methyl-1-propionyl-1,2,3,4-tetrahydroquinolin-4-yl)amino)cyclohexane-1-carbonyl)-N-(4-(((2S,4R)-2-methyl-1-propionyl-1,2,3,4-tetrahydroquinolin-4-yl)amino)phenyl)piperazine-1-carboxamide]
Second: CCC(=O)N1c2ccccc2[C@H](Nc2ccc(NC(=O)CCCC(=O)NC3CCN(Cc4cc(O)cc(-c5c(C)noc5C)c4)CC3)cc2)C[C@@H]1C [Compound 12c, N^1-(1-(3-(3,5-Dimethylisoxazol-4-yl)-5-hydroxybenzyl)piperidinyl)-N^5-(4-(((2S,4R)-2-methyl-1-propionyl-1,2,3,4-tetrahydroquinolin-4-yl)amino)phenyl)glutaramide]
The “Suppression rate of MYC mRNA expression” value of the first is higher: 97.9% for the first, 97.8% for the second.

Compared with `CCC(=O)N1c2ccccc2[C@H](Nc2ccc(C(=O)NCCCNC(=O)c3ccc(C4=N[C@@H](CC(=O)OC5CCC(O)CC5)c5nnc(C)n5-c5sc(C)c(C)c54)cc3)cc2)C[C@@H]1C` (stereo partly drawn) [Compound 13d, 4-Hydroxycyclohexyl 2-((S)-2,3,9-trimethyl-4-(4-((3-(4-(((2S,4R)-2-methyl-1-propionyl-1,2,3,4-tetrahydroquinolin-4-yl)amino)benzamide)propyl)carbamoyl)phenyl)-6H-thieno[3,2-f][1,2,4]triazolo[4,3-a][1,4]diazepin-6-yl)acetate], `CCC(=O)N1c2ccccc2[C@H](Nc2ccc(C(=O)NCCCNC(=O)c3ccc(C4=N[C@@H](CC(=O)OCCCOC)c5nnc(C)n5-c5sc(C)c(C)c54)cc3)cc2)C[C@@H]1C` [Compound 13h, 3-Methoxypropyl 2-((S)-2,3,9-trimethyl-4-(4-((3-(4-(((2S,4R)-2-methyl-1-propionyl-1,2,3,4-tetrahydroquinolin-4-yl)amino)benzamide)propyl)carbamoyl)phenyl)-6H-thieno[3,2-f][1,2,4]triazolo[4,3-a][1,4]diazepin-6-yl)acetate] is higher in “Suppression rate of MYC mRNA expression” value: 97.2% for the first, 97.4% for the second.
